What was measured:
[1] = system: 40 human urothelial (bladder) cancer cell lines; assay: Alamar Blue growth inhibition of 40 bladder cancer cell lines, single drugs, 72 hours; format: cell-based; details: for criterion dose (CR): minimum dose at which at least 25% of cell lines showed growth inhibition >50%; for number of resistant cell lines / number of sensitive cell lines: of 40 bladder cancer cell lines; for number of sensitive cell lines: log10(GI50) ≤ CR
Description: The human bladder cancer cell lines and the respective growth conditions used in this study have been previously described (6, 7). Cisplatin was purchased from Sigma (St. Louis, Mo.), dissolved in Dulbecco's phosphate-buffered saline, and aliquoted in 1 mg/ml stocks. Paclitaxel was purchased from Sigma (St. Louis, Mo.), dissolved in Dimethyl Sulphoxide (DMSO), and aliquoted in 1 mM stocks. Gemcitabine was purchased from the University of Virginia Medical Center Pharmacy, dissolved in PBS, and aliquoted in 0.1 M stocks. Cell lines were maintained in appropriate media, in a humidified atmosphere containing 5% CO2 in air, except CRL2169 (SW780) which requires no CO2 for its growth. Cell lines were subcultured in an aqueous solution of 0.05% trypsin (Difco, 1:250) and 0.016% EDTA. Each cell line was used within 10 passages from its archival passage number in order to minimize any long term cell culture effects. Gene expression analysis of bladder cell lines was carried out as previously described using the HG-U133A GeneChip® array (Affymetrix®, Santa Clara, Calif., USA) (6, 7). The image file was analyzed with RMA, to obtain the expression intensity values of the microarray data (8).
Cell lines were seeded in 96-well cell culture plates (Costar) at a density of 1000 cells/well. 24 hours later, cells were exposed to the drugs diluted in RPMI-1640 medium, containing 10% FBS, concentration that is required by more than 75% of cell lines for their normal growth, at a total volume of 200 μL. Each drug dose was plated in triplicate, and the experiment was repeated four to seven times. The doses for Cisplatin were 200, 400, 800, 1600, 3200, and 6400 ng/ml; for Paclitaxel 0.0001, 0.001, 0.002, 0.005, 0.01, and 0.1 μM; for Gemcitabine 0.001, 0.01, 0.1, 1, 10, 100 μM.
From the dose-response data, log 10(GI50) values (log base 10 of concentration required to inhibit cell growth by 50% in comparison with untreated control) were estimated for all the cell lines by deriving log(dose) concentration curves on cell count percents as described below. To estimate the GI50 values reliably, we computed Euclidean distances among all replicated experiments, and excluded outlying experiments if they were in the top 20% among all measured distances. This percent was determined heuristically based on the general observations in experimental quality control. […] Subsequently, the data were fitted to a sigmoidal function such as the following nonlinear regression model for estimating each cell line's dose response curve:
Percent=1−1/(1+exp(−(log 10(dose)−β)/α),
where α and β determine the shape of a fitted line.
This sigmoidal regression function was used to capture the natural shapes of drug dose responses. Thus, the estimated β is the predicted log 10(GI50) value, the expected log concentration achieving the cell count reduction of 50%. Similarly, log 10(GI30), and log 10(GI70) values, i.e. the concentrations required to inhibit cell growth by 30%, and 70% in comparison with untreated control, were also calculated.
Cell line drug sensitivity was classified using the GI estimates and application of a criterion dose (CR) concept. […] Using these CR concentrations, each cell line was defined as sensitive if log 10(GI50)≦CR; strongly sensitive if […], or resistant if log 10(GI70)>CR, and intermediate if log 10(GI50)>CR and log 10(GI70)<CR.
To approach the development of molecular models of chemotherapeutic sensitivity in human bladder cancer, we focused on a well-defined series of 40 urothelial cell lines for which we could measure sensitivity to relevant chemotherapeutic agents in vitro and correlate these responses with global measurements of gene expression.

[2] = system: BLA-40 human bladder cancer cell lines; assay: In vitro growth inhibition (GI50) in BLA-40 cells, 48 hours, as for NCI-60; format: cell-based; details: for potency in BLA-40 compared with NCI-60 tissue panels: BLA-40 vs nine tissue-specific panels of NCI-60
Excerpt: Sensitivity of human bladder cancer cells to cisplatin, paclitaxel and NSC 637993. To test the predictive models, we performed in vitro drug response experiments, and then determined GI50 values for each bladder cell line for cisplatin, paclitaxel, and compound NSC 637993 (Supplementary Materials and Methods). Sensitivity to the agents was generated by a dose response experiments carried out on the BLA-40 cells as described for the NCI-60. The final concentrations of cisplatin used were 200, 400, 800, 1600, 3200, and 6400 ng/ml; those of Paclitaxel and NSC 637993 were 0.1, 1, 2, 5, 10, and 100 nM. In each case, the cells were plated on Day 0, exposed to drug for 48 hours) at 37° C., and then assayed. Each experiment was repeated three to five independent times, and the results were expressed as a fraction of the difference between initial cell count and untreated control. Log 10(GI50) values were then estimated from the resulting dose-response curves. Bladder cell lines were defined as sensitive or resistant as described above for the NCI-60 panel. […]
In the first application of the COXEN algorithm, for example, Cell Sets 1 and 2 were the NCI-60 and BLA-40 cell panels, respectively; the Step 1 drug activities were those assessed by DTP in the NCI-60 using a 48-hour sulforhodamine B assay; the “molecular characteristic” in Steps 2 and 4 was transcript expression level, as assessed using Affymetrix HG-U133A microarrays; the algorithm in Step 3 was “Significance Analysis of Microarrays (SAM)” or two-sample t-test; Step 5 was a novel “co-expression extrapolation” algorithm; Step 6 was another novel algorithm, “Misclassification-Penalized Posterior” (MiPP), which we recently introduced for selection of the best mathematical “models” for the prediction; and applying the prediction models obtained in Step 6, independent testing of the predictions on BLA-40 cells was performed, mimicking the way the assay for the NCI-60 by DTP.

[3] = system: breast cancer; details: cited from earlier work
[4] = system: bladder cancer; details: cited from earlier work
[5] = system: breast cancer patients; details: 24 patients, four cycles of neoadjuvant docetaxel, original study; cited from earlier work
[6] = system: estrogen receptor-positive breast cancer patients; assay: TAM-60 breast cancer clinical trial, time to recurrence classification; format: in vivo, human; details: of 60 patients
Description: In the tamoxifen clinical trial (TAM-60), 60 postmenopausal breast cancer patients with estrogen receptor-positive tumors were treated and followed for up to 180 months. Genome-wide expression profiling was performed on the primary tumors using a customized cDNA microarray platform.

Row | SMILES | criterion dose (CR) [1] | number of resistant cell lines [1] | number of sensitive cell lines [1] | also measured
1 | Nc1ccn([C@@H]2O[C@H](CO)[C@@H](O)C2(F)F)c(=O)n1 [Gemcitabine] | 0.1 µM | 11 | 8 | –
2 | CCN(CC)CCNc1ccc2nc(C)n3c4ccc(OC)cc4c(=O)c1c23 [NSC 637993] | – | – | – | proportion of BLA-40 cell types with GI50 less than 10-6M ([2]; BLA-40 panel): > 60%; potency in BLA-40 compared with NCI-60 tissue panels [2]: more effective at a lower dose (1×10^−6M) in bladder cancer; potency in BLA-40 compared with NCI-60 tissue panels ([2]; listed as NSC637993): more potent overall in the BLA-40 bladder cancers than in any of the organ-of-origin types included in the NCI-60
3 | CC(=O)O[C@H]1C(=O)[C@@]2(C)[C@H]([C@H](OC(=O)c3ccccc3)[C@]3(O)C[C@H](OC(=O)[C@H](O)[C@@H](NC(=O)c4ccccc4)c4ccccc4)C(C)=C1C3(C)C)[C@]1(OC(C)=O)CO[C@@H]1C[C@@H]2O [Paclitaxel] | 0.005 µM | 11 | 17 | –
4 | N.N.[Cl][Pt][Cl] [cisplatin] | 400 ng/mL | 11 | 16 | –
5 | O=c1[nH]cc(F)c(=O)[nH]1 [compound 19893] | – | – | – | Clinical response rate [3]: 44.4; Clinical response [4]: 23.1
6 | CC(=O)O[C@@]12CO[C@@H]1C[C@H](O)[C@@]1(C)C(=O)[C@H](O)C3=C(C)[C@@H](OC(=O)[C@H](O)[C@@H](NC(=O)OC(C)(C)C)c4ccccc4)C[C@@](O)([C@@H](OC(=O)c4ccccc4)[C@H]21)C3(C)C [docetaxel] | – | – | – | number of non-responder patients [5]: 13; number of responder patients [5]: 11
7 | CC/C(=C(\c1ccccc1)c1ccc(OCCN(C)C)cc1)c1ccccc1 [tamoxifen] | – | – | – | number of non-responders (recurrence <50 months) [6]: 16; number of responders (long-term survival >130 months) [6]: 11

Reference: patent publication US20080118576A1, “PREDICTION OF AN AGENT'S OR AGENTS' ACTIVITY ACROSS DIFFERENT CELLS AND TISSUE TYPES” (priority 2006, published 2008)
